Data on 2 compounds can be found in ChEMBL document CHEMBL1149820, “Synthesis, properties and photodynamic inactivation of Escherichia coli by novel cationic fullerene C60 derivatives” (2008).

Common to all, as to format: functional
For experiment [1], the system named is Escherichia coli. The experiment in a line: Photoinactivation of Escherichia coli EC7 assessed as log reduction of cell survival at 5 uM after 30 mins of irradiation.
Experiment [2] deals with Escherichia coli. The experiment in a line: Photoinactivation of Escherichia coli EC7 at 1 uM after 5 mins of irradiation.
Experiment [3] concerns Escherichia coli. The experiment in a line: Photoinactivation of Escherichia coli EC7 at 1 uM after 20 mins of irradiation.

Take `Cc1ccc(-c2c3nc(c(-c4ccc([N+](C)(C)C)cc4)c4ccc([nH]4)c(-c4ccc([N+](C)(C)C)cc4)c4nc(c(-c5ccc(C)cc5)c5ccc2[nH]5)C=C4)C=C3)cc1.[I-].[I-]`: in the experiment with Escherichia coli [1], the Survival is 3.2. The compound also displayed an Activity in the experiment on Escherichia coli [2] of 70%.
`C[N+](C)(C)CCCOc1ccc(-c2c3nc(c(-c4ccc(C(F)(F)F)cc4)c4ccc([nH]4)c(-c4ccc(OCCC[N+](C)(C)C)cc4)c4nc(c(-c5ccc(C(F)(F)F)cc5)c5ccc2[nH]5)C=C4)C=C3)cc1.[I-].[I-]` showed an Activity in the experiment with Escherichia coli [3] of 87%.
